Results on one substance are retold here after patent publication US6955900B1, “Methods for producing polypeptide binding sites, monoclonal antibodies and compositions thereof” (The Scripps Research Institute, priority 1993, dated 2005).

The test system of one test is M21 melanoma cells. Put plainly: adhesion of M21 melanoma cells to immobilized Fab or vitronectin. Type of test: cell-based, human. On the procedure:
When Fab 9 that contained an RGD binding site was used in cell adhesion assays, it blocked the melanoma cell adhesion to immobilized vitronectin with an IC50 of 4 nM in contrast to the framework antibody pMT12 that had no effect on cell adhesion. […] This finding provides further evidence that Fab 9 is specific to beta 3 integrins. In similar assays, Fab 9 was compared to vitronectin in the ability to support cellular adhesion. Both proteins supported the binding of cells saturating at approximately 5 ug/ml of Fab or vitronectin.
This assay, performed as described in Example 4, was performed with whole cell adhesion assays using M21 melanoma cells because they adhere to RGD-ligands primarily via αvβ3. M21 cells were allowed to adhere to a concentration range from 1 to 10 ug/ml of immobilized Fab 9 and MTF-10.

Another test deals with T1, αvβ3 (Homo sapiens, UniProt P05106+P06756).
T1 construct: human placentas were obtained, cut into small pieces and extracted; from tissue
T1 sequence (P06756 31-889 limits assumed): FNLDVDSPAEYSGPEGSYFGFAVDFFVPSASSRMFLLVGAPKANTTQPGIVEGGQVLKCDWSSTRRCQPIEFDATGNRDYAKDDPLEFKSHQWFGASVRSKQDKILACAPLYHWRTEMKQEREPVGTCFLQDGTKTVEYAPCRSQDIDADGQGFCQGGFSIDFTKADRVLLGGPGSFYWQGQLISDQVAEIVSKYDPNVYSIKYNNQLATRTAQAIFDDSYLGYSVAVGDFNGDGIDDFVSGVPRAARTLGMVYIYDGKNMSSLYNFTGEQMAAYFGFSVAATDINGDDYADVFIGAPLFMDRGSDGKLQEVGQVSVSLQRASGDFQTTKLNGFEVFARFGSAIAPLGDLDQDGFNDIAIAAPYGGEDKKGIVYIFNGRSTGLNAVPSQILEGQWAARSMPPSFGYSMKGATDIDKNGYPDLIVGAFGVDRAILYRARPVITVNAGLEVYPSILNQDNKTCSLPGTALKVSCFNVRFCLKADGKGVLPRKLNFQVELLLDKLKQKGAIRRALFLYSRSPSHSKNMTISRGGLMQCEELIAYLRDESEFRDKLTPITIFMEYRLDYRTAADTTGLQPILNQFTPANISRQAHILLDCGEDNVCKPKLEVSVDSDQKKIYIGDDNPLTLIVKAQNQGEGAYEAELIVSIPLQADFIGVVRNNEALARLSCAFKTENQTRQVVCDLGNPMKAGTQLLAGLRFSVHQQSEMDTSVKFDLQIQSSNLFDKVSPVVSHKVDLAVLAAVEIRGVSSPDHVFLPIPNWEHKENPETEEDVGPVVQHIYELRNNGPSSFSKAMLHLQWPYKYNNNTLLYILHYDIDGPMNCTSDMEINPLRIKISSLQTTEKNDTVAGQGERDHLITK
T1 sequence (P06756 891-1048 partner limits assumed): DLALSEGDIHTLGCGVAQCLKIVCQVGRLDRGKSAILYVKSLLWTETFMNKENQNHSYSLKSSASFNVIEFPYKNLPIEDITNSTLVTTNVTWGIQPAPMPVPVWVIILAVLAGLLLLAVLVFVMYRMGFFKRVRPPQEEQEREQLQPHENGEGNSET
T1 sequence (P05106 27-788): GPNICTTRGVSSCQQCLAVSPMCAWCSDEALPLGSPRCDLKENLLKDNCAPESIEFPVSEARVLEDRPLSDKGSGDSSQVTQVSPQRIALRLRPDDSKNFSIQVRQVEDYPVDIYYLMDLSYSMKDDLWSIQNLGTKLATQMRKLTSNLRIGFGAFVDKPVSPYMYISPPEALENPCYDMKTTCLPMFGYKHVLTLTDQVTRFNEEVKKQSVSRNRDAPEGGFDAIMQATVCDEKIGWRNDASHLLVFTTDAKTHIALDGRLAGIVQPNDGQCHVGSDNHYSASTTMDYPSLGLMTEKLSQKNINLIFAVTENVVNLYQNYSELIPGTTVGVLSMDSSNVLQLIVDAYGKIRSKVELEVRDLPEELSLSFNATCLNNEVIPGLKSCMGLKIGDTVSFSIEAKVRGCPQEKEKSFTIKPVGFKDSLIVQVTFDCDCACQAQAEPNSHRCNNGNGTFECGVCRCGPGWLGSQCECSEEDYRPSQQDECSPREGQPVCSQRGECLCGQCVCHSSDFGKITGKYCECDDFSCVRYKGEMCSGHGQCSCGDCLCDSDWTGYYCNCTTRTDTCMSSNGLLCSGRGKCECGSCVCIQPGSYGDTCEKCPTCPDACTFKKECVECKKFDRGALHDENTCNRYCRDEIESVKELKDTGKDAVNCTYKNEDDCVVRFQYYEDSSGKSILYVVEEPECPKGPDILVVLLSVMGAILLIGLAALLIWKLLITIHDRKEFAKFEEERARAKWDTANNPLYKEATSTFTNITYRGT
Put plainly: dissociation of 125I-ligand from purified αvβ3. The conditions noted are these: two hour dissociation after four hours binding. On the procedure: The binding of Fab 9 is shown as an example in this analysis, but its binding behavior was essentially identical to that of the MTF antibodies. The ability of ^125I-Fab 9 to dissociate from purified αvβ3 was compared to that of ^125I-vitronectin in purified ligand-receptor binding assays performed as described in Example 5B. Both ligands were incubated with purified αvβ3 for four hours. Then buffer containing radioligands was replaced with binding buffer lacking ligand to allow dissociation. An effort was also made to promote dissociation by adding 10 uM GRGDSP (SEQ ID NO 66) after the binding step. […] Following a two hour incubation to allow dissociation, buffer was removed and the amount of ^125I-ligand remaining bound to integrin was measured. The remaining bound ligand was compared to the amount of ligand bound at the beginning of the dissociation step.

Consider “vitronectin: natural high affinity ligand of αvβ3”, for which, in the test on M21 melanoma cells, the “coating concentration at which supported cell binding saturates” value was “approximately 5 ug/ml”. The “bound ligand that remained associated with αvβ3” value with αvβ3 is recorded as “greater than 65%”.
